Columns and labels:
rat neurons = assay: SEM images of rat neurons after exposure to toxic amyloid peptide (FIG. 1); format: cell-based; conditions: exposure for 4 days to 250 micro molar toxic peptide
From the text: At this resolution one can see copious dendritic structures, the round dark circles. The resolution is not high enough to visualize synaptic connections. The image labeled A is of rat neurons after exposure for 4days to 250 micro molar concentrations of toxic peptide. […] This model emulates what is seen in the human versions of AD disease.

cortical rat neurons = assay: Dendrite and synaptic connections of rat cortical neurons after exposure to tryptamines (FIG. 2); format: cell-based; conditions: 24 hours of exposure, FIG. 2 left to right
From the text: The effect is dramatic and fast even with very small doses of the compounds which is a desirable profile for a therapeutic molecule. Looking at FIG. 2 from left to right, it is apparent that LSD>DMT>DOI>Vehicle with regards to dendritic and synaptic generation. Potential therapeutics that can be used in the present invention are tryptamines such as tryptamines and phenethylamines selected from the group, N, N-dimethyltryptamine, 5-methoxy-N, N-dimethyltryptamine, Ketamine, noribogaine, psilocin 3,4-methylenedioxymethamphetamine, mescaline, psilocin, and psilocybin. The dose concentration will vary by molecule type but can range for 0.00001 to 250 milligrams to kilograms (mg/kg) of body weight with 0.01 to 50 mg/kg being preferred.

Molecule | degradation of the dendrites (and synaptic connections) (rat neurons) | rank order with regards to dendritic and synaptic generation (cortical rat neurons)
A 42 amyloid proteins: toxic amyloid protein used to compromise rat neurons, dendrites and synaptic connections | significant degradation of the dendrites | –
COc1cc(CC(C)N)c(OC)cc1I (stereo not drawn) [DOI] | – | LSD>DMT>DOI>Vehicle
CN(C)CCc1c[nH]c2ccccc12 [DMT, N, N-dimethyltryptamine] | – | LSD>DMT>DOI>Vehicle

Reference: patent publication US20250127775A1, “METHOD OF INDUCING DENDRITIC AND SYNAPTIC GENESIS IN NEURODE[…] DISEASES” (priority 2018, published 2025)
